The results in this text go back to US8471024B2, “Tetrahydrofuropyridones” (priority 2008, dated 2013).

The target of the assay is T1, PHD2 (Homo sapiens, UniProt Q9GZT9).
T1 construct: FLAG-tagged full length PHD2expressed in and purified from baculovirus-infected Sf9 cells; FLAG; made in house; host or cells: baculovirus-infected Sf9 cells
T1 sequence (Q9GZT9 whole entry): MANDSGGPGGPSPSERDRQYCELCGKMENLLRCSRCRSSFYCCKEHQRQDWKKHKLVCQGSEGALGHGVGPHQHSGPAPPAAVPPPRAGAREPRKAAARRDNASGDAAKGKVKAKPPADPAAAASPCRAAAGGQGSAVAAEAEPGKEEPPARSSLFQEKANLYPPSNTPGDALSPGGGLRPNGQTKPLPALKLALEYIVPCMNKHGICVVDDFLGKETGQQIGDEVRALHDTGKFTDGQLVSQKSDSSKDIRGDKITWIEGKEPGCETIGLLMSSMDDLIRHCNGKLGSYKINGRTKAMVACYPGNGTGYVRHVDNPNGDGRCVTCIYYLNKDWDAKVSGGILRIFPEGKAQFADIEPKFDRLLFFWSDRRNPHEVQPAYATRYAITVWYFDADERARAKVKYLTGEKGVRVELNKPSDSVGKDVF
The assay is described as follows: Assay for HIF-PHD2 Catalytic Activity (time resolved fluorescence, VHL complex detection). It is filed as biochemical. The conditions noted are these: FLAG-tagged full length PHD2; 0.2 μM 2-oxoglutarate, 0.5 μM HIF-1α peptide; read-out: PHD2 Binding Activity IC50. The procedure: Assay for HIF-PHD2Catalytic Activity To each well of a 96-well plate was added 1 μL of test compound in DMSO and 20 μl of assay buffer (50 mM Tris pH 7.4/0.01% Tween-20/0.1 mg/ml bovine serum albumin/10 μM ferrous sulfate/1mM sodium ascorbate/20 μg/ml catalase) containing 0.15 μg/ml FLAG-tagged full length PHD2expressed in and purified from baculovirus-infected Sf9 cells. After a 30 min preincubation at room temperature, the enzymatic reactions were initiated by the addition of 4 μL of substrates (final concentrations of 0.2 μM 2-oxoglutarate and 0.5 μM HIF-1α peptide biotinyl-DLDLEMLAPYJPMDDDFQL).
Take `O=C(O)CNC(=O)c1c(O)c2c(n(Cc3nc4ccccc4s3)c1=O)COC2` [Example 1, N-{[1-(1,3-benzothiazol-2-ylmethyl)-4-hydroxy-2-oxo-1,2,5,7-tetrahydrofuro[3,4-b]-pyridin-3-yl]carbonyl}glycine]: the IC50 (commonly the concentration needed to halve the response being measured) is less than 10 nM.

For the compound `O=C(O)CNC(=O)c1c(O)c2c(n(Cc3cccnn3)c1=O)COC2` [Example 4, N-{[4-hydroxy-2-oxo-1-(pyridazin-3-ylmethyl)-1,2,5,7-tetrahydrofuro[3,4-b]pyridin-3-yl]carbonyl}glycine], the IC50 is less than 10 nM.

Take `O=C(O)CNC(=O)c1c(O)c2c(n(Cc3noc(-c4ccccc4)n3)c1=O)COC2` [Example 5, N-({4-hydroxy-2-oxo-1-[(5-phenyl-1,2,4-oxadiazol-3-yl)methyl]-1,2,5,7-tetrahydrofuro[3,4-b]pyridin-3-yl}carbonyl)glycine]: the IC50 was less than 10 nM.

As for `Cc1cnc(Cn2c3c(c(O)c(C(=O)NCC(=O)O)c2=O)COC3)cn1` [Example 7], the IC50 was less than 10 nM.

As for `CC(C)Oc1ccc(Cn2c3c(c(O)c(C(=O)NCC(=O)O)c2=O)COC3)cc1` [Example 8, N-{[4-hydroxy-1-(4-isopropoxybenzyl)-2-oxo-1,2,5,7-tetrahydrofuro[3,4-b]pyridin-3-yl]carbonyl}glycine], the IC50 is less than 10 nM.

As for `O=C(O)CNC(=O)c1c(O)c2c(n(Cc3ccc(Cl)nc3)c1=O)COC2` [Example 9, N-({1-[(6-chloropyridin-3-yl)methyl]-4-hydroxy-2-oxo-1,2,5,7-tetrahydrofuro[3,4-b]pyridin-3-yl}carbonyl)glycine], the IC50 was less than 10 nM.

For `O=C(O)CNC(=O)c1c(O)c2c(n(Cc3ccc(Br)cc3)c1=O)COC2` [Example 10, N-{[1-(4-bromobenzyl)-4-hydroxy-2-oxo-1,2,5,7-tetrahydrofuro[3,4-b]pyridin-3-yl]carbonyl)glycine], the IC50 is less than 10 nM.

Turning to `O=C(O)CNC(=O)c1c(O)c2c(n(CC3Cc4ccccc4C3)c1=O)COC2` [Example 11, N-{[1-(2,3-dihydro-1H-inden-2-ylmethyl)-4-hydroxy-2-oxo-1,2,5,7-tetrahydrofuro[3,4-b]pyridin-3-yl]carbonyl}glycine], the IC50 was less than 10 nM.

Regarding `O=C(O)CNC(=O)c1c(O)c2c(n(Cc3cnc(Cl)cn3)c1=O)COC2` [Example 12, N-({1-[(5-chloropyrazin-2-yl)methyl]-4-hydroxy-2-oxo-1,2,5,7-tetrahydrofuro[3,4-b]pyridin-3-yl}carbonyl)glycine], the IC50 was less than 10 nM.

For `CC1OCc2c1c(O)c(C(=O)NCC(=O)O)c(=O)n2Cc1ccc(C(F)(F)F)cc1` (stereo not drawn) [Example 13, N-({4-hydroxy-5-methyl-2-oxo-1-[4-(trifluoromethyl)benzyl]-1,2,5,7-tetrahydrofuro[3,4-b]pyridin-3-yl}carbonyl)glycine], the IC50 was less than 10 nM.

As for `CC1OCc2c1c(O)c(C(=O)NCC(=O)O)c(=O)n2Cc1ccc(C(F)(F)F)nc1` (stereo not drawn) [Example 14, N-[(4-hydroxy-5-methyl-2-oxo-1-{[6-(trifluoromethyl)pyridine-3-yl]methyl}-1,2,5,7-tetrahydrofuro[3,4-b]pyridin-3-yl}carbonyl)glycine], the IC50 was less than 10 nM.

Consider `O=C(O)CNC(=O)c1c(O)c2c(n(Cc3ccc(Br)cc3F)c1=O)COC2` [Example 15, N-{[1-(4-bromo-2-fluorobenzyl)-4-hydroxy-2-oxo-1,2,5,7-tetrahydrofuro[3,4-b]pyridin-3-yl]carbonyl}glycine], for which the IC50 is less than 10 nM.

Turning to `O=C(O)CNC(=O)c1c(O)c2c(n(Cc3ccc(OC(F)F)cc3)c1=O)COC2` [Example 17, N-{[1-(4-difluoromethoxybenzyl)-4-hydroxy-2-oxo-1,2,5,7-tetrahydrofuro[3,4-b]pyridin-3-yl]carbonyl}glycine], the IC50 was less than 10 nM.

For `O=C(O)CNC(=O)c1c(O)c2c(n(Cc3ccc(OCC(F)(F)F)nc3)c1=O)COC2` [Example 19, N-[(4-hydroxy-2-oxo-1-{[6-(2,2,2-trifluoroethoxy)pyridin-3-yl]methyl}-1,2,5,7-tetrahydrofuro[3,4-b]pyridin-3-yl)carbonyl]glycine], the IC50 is less than 10 nM.

On to `Cc1ccccc1-n1ccc(Cn2c3c(c(O)c(C(=O)NCC(=O)O)c2=O)COC3)n1` [Example 20, N-[(4-hydroxy-1-{[1-(2-methylphenyl)-1-H-pyrazol-3-yl]methyl}-2-oxo-1,2,5,7-tetrahydrofuro[3,4-b]pyridin-3-yl)carbonyl]glycine], for which the IC50 is less than 10 nM.

In the case of `Cc1nn(-c2ccccc2)nc1Cn1c2c(c(O)c(C(=O)NCC(=O)O)c1=O)COC2` [Example 21, N-({4-hydroxy-1-[(5-methyl-2-phenyl-2H-1,2,3-triazol-4-yl)methyl]-2-oxo-1,2,5,7-tetrahydrofuro[3,4-b]pyridin-3-yl}carbonyl)glycine], the IC50 is less than 10 nM.

In the case of `O=C(O)CNC(=O)c1c(O)c2c(n(Cc3ccn(-c4ccc(F)cc4)n3)c1=O)COC2` [Example 22], the IC50 was less than 10 nM.

As for `O=C(O)CNC(=O)c1c(O)c2c(n(Cc3ccc(-c4nccs4)cc3)c1=O)COC2` [Example 23, N-({4-hydroxy-2-oxo-1-[4-(1,3-thiazol-2-yl)benzyl]-1,2,5,7-tetrahydrofuro[3,4-b]pyridin-3-yl}carbonyl)glycine], the IC50 was less than 10 nM.

Take `O=C(O)CNC(=O)c1c(O)c2c(n(Cc3ccc(OCC(F)(F)F)cc3)c1=O)COC2` [Example 24, N-({4-hydroxy-2-oxo-1-[4-(2,2,2-trifluoroethoxy)benzyl]-1,2,5,7-tetrahydrofuro[3,4-b]pyridin-3-yl}carbonyl)glycine]: the IC50 was less than 10 nM.

Regarding `CC1(C)OCc2c(O)c(C(=O)NCC(=O)O)c(=O)n(Cc3nc4ccccc4s3)c21` [Example 25], the IC50 fell in the range of 10 to 100 nM.

Regarding `O=C(O)CNC(=O)c1c(O)c2c(n(Cc3nc(-c4ccc(Cl)cc4Cl)cs3)c1=O)COC2` [Example 26, N-[(1-{[4-(2,4-dichlorophenyl)-1,3-thiazol-2-yl]methyl)-4-hydroxy-2-oxo-1,2,5,7-tetrahydrofuro[3,4-b]pyridin-3-yl)carbonyl]glycine], the IC50 is less than 10 nM.

For the compound `O=C(O)CNC(=O)c1c(O)c2c(n(Cc3nc(-c4ccccc4Cl)cs3)c1=O)COC2` [Example 27, N-[(1-{[4-(2-chlorophenyl)-1,3-thiazol-2-yl]methyl)-4-hydroxy-2-oxo-1,2,5,7-tetrahydrofuro[3,4-b]pyridin-3-yl)carbonyl]glycine], the IC50 is less than 10 nM.

Turning to `O=C(O)CNC(=O)c1c(O)c2c(n(Cc3ccc(-c4ccccc4Cl)cc3)c1=O)COC2` [Example 28], the IC50 was less than 10 nM.

As to `O=C(O)CNC(=O)c1c(O)c2c(n(Cc3ccc(-c4ccccc4Cl)nc3)c1=O)COC2` [Example 29], the IC50 was less than 10 nM.

With `O=C(O)CNC(=O)c1c(O)c2c(n(Cc3ccc(-c4ccc(Cl)cc4)cc3)c1=O)COC2` [Example 30], the IC50 is less than 10 nM.

As to `O=C(O)CNC(=O)c1c(O)c2c(n(Cc3ccc(-c4ccc(F)cc4)cc3)c1=O)COC2` [Example 31], the IC50 was less than 10 nM.

In the case of `O=C(O)CNC(=O)c1c(O)c2c(n(Cc3ccc(-c4ccccc4-n4cccn4)cc3)c1=O)COC2` [Example 32, N-[(4-hydroxy-2-oxo-1-{[2′-(1H-pyrazol-yl)biphenyl-4-yl]methyl}-1,2,5,7-tetrahydrofuro[3,4-b]pyridin-3-yl}carbonyl)glycine], the half-inhibitory concentration (IC50) is less than 10 nM.
